Assay results taken from patent publication US5525617A, “Fibrinogen receptor antagonists” (Merck & Co., Inc., priority 1994, dated 1996).

Test system: gel-filtered human platelets
Assay: in vitro ADP-stimulated platelet aggregation (inhibition)
Type: cell-based
Conditions: gel-filtered human platelets 2×10^8 per ml, fibrinogen 100 micrograms per ml, Ca^2+ 1 mM, 10 mM ADP, 37° C., Chronolog aggregometer
Procedure: Platelet aggregation is measured at 37° C. in a Chronolog aggregometer. The reaction mixture contains gel-filtered human platelets (2×10^8 per ml), fibrinogen (100 micrograms per ml (ug/ml)), Ca^2+ (1 mM), and the compound to be tested. The aggregation is initiated by adding […] ADP 1 minute after the other components are added. The reaction is then allowed to proceed for at least 2 minutes. The extent of inhibition of aggregation is expressed as the percentage of the rate of aggregation observed in the absence of inhibitor. The IC50 is the dose of a particular compound inhibiting aggregation by 50% relative to a control lacking the compound.
In addition to the following preparative procedures, several examples of in vitro bioactivity of compounds within the scope of the present invention are indicated. To illustrate, one test which is used to evaluate fibrinogen receptor antagonist activity is based on evaluation of inhibition of ADP-stimulated platelets. Aggregation requires that fibrinogen bind to and occupy the platelet fibrinogen receptor site. Inhibitors of fibrinogen binding inhibit aggregation. In the ADP-stimulated platelet aggregation assay used to determine inhibition associated with the compounds claimed in the instant invention, human platelets are isolated from fresh blood, collected into acid citrate/dextrose by differential centrifugation followed by gel filtration on Sepharose 2B in divalent ion-free Tyrode's buffer (pH 7.4) containing 2% bovine serum albumin.

| SMILES | IC50 [nM] |
| --- | --- |
| O=C(O)CCNC(=O)c1ccc2c(c1)C(=O)C(CCC1CCNCC1)C2 (stereo not drawn) | 2300 |
| CCCCS(=O)(=O)N[C@@H](CNC(=O)c1ccc2c(c1)C(=O)C(CCC1CCNCC1)C2)C(=O)O (stereo partly drawn) | 9 |
| CCCCS(=O)(=O)N[C@@H](CNC(=O)c1ccc2c(c1)CC(CCC1CCNCC1)C2)C(=O)O (stereo partly drawn) | 14 |
